Activity calls are given as the source filed them. No cut-off for these calls is given here.
Experiments:
Nucleic Acid [1] = assay: Induction of structural transition from antiparallel to the mixed-type hybrid G-quadruplex structure in human telomeric sequence (T2AG3)4 by CD spectroscopy; assay type: nucleic-acid assay
Nucleic Acid [2] = assay: Induction of G-quadruplex stabilization in G4C oligonucleotide assessed as change in DNA melting temperature at [compound/G4C ratio = 1] in pH 7.4 10 mM Tris-HCl, 1 mM EDTA buffer by CD spectroscopy; assay type: nucleic-acid assay
Nucleic Acid [3] = assay: Induction of G-quadruplex stabilization in G4C oligonucleotide assessed as change in DNA melting temperature at [compound/G4C ratio = 2] in pH 7.4 10 mM Tris-HCl, 1 mM EDTA buffer by CD spectroscopy; assay type: nucleic-acid assay
Nucleic Acid [4] = assay: Induction of G-quadruplex stabilization in G4C oligonucleotide assessed as change in DNA melting temperature at [compound/G4C ratio = 3] in pH 7.4 10 mM Tris-HCl, 1 mM EDTA buffer by CD spectroscopy; assay type: nucleic-acid assay
Nucleic Acid [5] = assay: Induction of G-quadruplex stabilization in G4C oligonucleotide assessed as change in DNA melting temperature at [compound/G4C ratio = 4] in pH 7.4 10 mM Tris-HCl, 1 mM EDTA buffer by CD spectroscopy; assay type: nucleic-acid assay
Nucleic Acid [6] = assay: Induction of G-quadruplex stabilization in G4C oligonucleotide assessed as change in DNA melting temperature at [compound/G4C ratio = 5] in pH 7.4 10 mM Tris-HCl, 1 mM EDTA buffer by CD spectroscopy; assay type: nucleic-acid assay
Nucleic Acid [7] = assay: Binding affinity to human bcl2 promoter G-quadruplex sequence by surface plasmon resonance spectroscopy; assay type: nucleic-acid assay
Nucleic Acid [8] = assay: Binding affinity to human c-myc promoter G-quadruplex sequence by surface plasmon resonance spectroscopy; assay type: nucleic-acid assay
Nucleic Acid [9] = assay: Binding affinity to human telomeric G-quadruplex sequence by surface plasmon resonance spectroscopy; assay type: nucleic-acid assay
Nucleic Acid [10] = assay: Binding affinity to dsDNA by surface plasmon resonance spectroscopy; assay type: nucleic-acid assay
Nucleic Acid [11] = assay: Selectivity for human bcl2 promoter G-quadruplex sequence over double stranded DNA by surface plasmon resonance spectroscopy; assay type: nucleic-acid assay
Nucleic Acid [12] = assay: Binding affinity to F21T G-quadruplex DNA at 2.5 uM in presence of competitor dsDNA by competitive FRET melting assay; assay type: nucleic-acid assay
Nucleic Acid [13] = assay: Selectivity for human c-myc promoter G-quadruplex sequence over double stranded DNA by surface plasmon resonance spectroscopy; assay type: nucleic-acid assay
Nucleic Acid [14] = assay: Selectivity for human telomeric G-quadruplex sequence over double stranded DNA by surface plasmon resonance spectroscopy; assay type: nucleic-acid assay
Nucleic Acid [15] = assay: Induction of G-quadruplex stabilization in HT4 oligonucleotide assessed as inhibition of DNA synthesis by Taq DNA polymerase stop assay
Nucleic Acid [16] = assay: Induction of G-quadruplex stabilization in G4C oligonucleotide in pH 7.4 10 mM Tris-HCl, 1 mM EDTA buffer by CD spectroscopy; assay type: nucleic-acid assay

| Activity (Nucleic Acid [1]) | ΔTm (Nucleic Acid [2]) | ΔTm (Nucleic Acid [3]) | ΔTm (Nucleic Acid [4]) | ΔTm (Nucleic Acid [5]) | ΔTm (Nucleic Acid [6]) | KA (Nucleic Acid [7]) | KA (Nucleic Acid [8]) | KA (Nucleic Acid [9]) | KA (Nucleic Acid [10]) | Selectivity ratio (Nucleic Acid [11]) | Activity (Nucleic Acid [12]) | Selectivity ratio (Nucleic Acid [13]) | Selectivity ratio (Nucleic Acid [14]) | Activity (Nucleic Acid [15]) | Activity (Nucleic Acid [16]) | SMILES |
| --- | --- | --- | --- | --- | --- | --- | --- | --- | --- | --- | --- | --- | --- | --- | --- | --- |
| Active | 3.8 °C | 6.6 °C | 8.3 °C | 9.2 °C | 9.3 °C | 1.42 ×10⁷ /M | 7.54 ×10⁶ /M | 5.32 ×10⁶ /M | 1.32 ×10⁵ /M | 108 | Active | 57 | 40 | Dose-dependent effect | – | C1=C/C2=C(\c3ccc(C[n+]4ccccc4)cc3)c3c[nH]c(c3)/C(c3ccc(C[n+]4ccccc4)cc3)=C3/C=CC(=N3)/C(c3ccc(C[n+]4ccccc4)cc3)=c3/cc/c([nH]3)=C(\c3ccc(C[n+]4ccccc4)cc3)C1=N2 |
| – | 2.2 °C | 3.3 °C | 5 °C | 6.5 °C | 7.6 °C | 1.74 ×10⁷ /M | 5.82 ×10⁷ /M | 2.37 ×10⁷ /M | 6.85 ×10⁵ /M | 25 | – | 85 | 34 | – | Active | C1=Cc2nc1c(-c1ccc(C[n+]3ccccc3)cc1)c1nc(c(-c3ccc(C[n+]4ccccc4)cc3)c3ccc([nH]3)c(-c3ccc(C[n+]4ccccc4)cc3)c3ccc([nH]3)c2-c2ccc(C[n+]3ccccc3)cc2)C=C1 |

| SMILES | Activity (Nucleic Acid [1]) | ΔTm (Nucleic Acid [2]) | ΔTm (Nucleic Acid [3]) | ΔTm (Nucleic Acid [4]) | ΔTm (Nucleic Acid [5]) | ΔTm (Nucleic Acid [6]) | KA (Nucleic Acid [7]) | KA (Nucleic Acid [8]) | KA (Nucleic Acid [9]) | KA (Nucleic Acid [10]) | Selectivity ratio (Nucleic Acid [11]) | Activity (Nucleic Acid [12]) | Selectivity ratio (Nucleic Acid [13]) | Selectivity ratio (Nucleic Acid [14]) | Activity (Nucleic Acid [15]) | Activity (Nucleic Acid [16]) |
| --- | --- | --- | --- | --- | --- | --- | --- | --- | --- | --- | --- | --- | --- | --- | --- | --- |
| C[n+]1ccc(-c2c3nc(c(-c4cc[n+](C)cc4)c4ccc([nH]4)c(-c4cc[n+](C)cc4)c4ccc([nH]4)c(-c4cc[n+](C)cc4)c4nc2C=C4)C=C3)cc1 | – | 4.2 °C | 7.5 °C | 9.6 °C | 11.2 °C | 10 °C | 3.09 ×10⁷ /M | 1.01 ×10⁸ /M | 4.65 ×10⁷ /M | 3.62 ×10⁶ /M | 9 | – | 28 | 13 | – | – |
